The target in assay [1] is T1, mCherry-^FIREtag / ^FIREmate-ECFP-Giantin (Halorhodospira halophila, UniProt P16113, A30V/C69G/D97P/F96I, form not given/G21E/G25R/K17N/M100R/M109L/Q41L/Q99S/S72T/T101G/V83A/Y94W/Y98T).
T1 construct: FIREmate-ECFP-Giantin(3131-3259) and mCherry-FIREtag in HeLa cells
T1 sequence (P16113 1-114 A30V/C69G/D97P/F96I/G21E/G25R/K17N/M100R/M109L/Q41L/Q99S/S72T/T101G/V83A/Y94W/Y98T): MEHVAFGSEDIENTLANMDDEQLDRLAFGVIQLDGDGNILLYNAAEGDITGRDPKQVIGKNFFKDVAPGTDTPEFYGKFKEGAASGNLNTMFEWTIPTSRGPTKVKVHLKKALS
Nature of the assay: Recruitment of cytoplasmic protein to the Golgi apparatus, HeLa cells. Type of assay: cell-based. The settings on record: 10 μM. The procedure: FIGS. 6A-E illustrate the recruitment of cytoplasmic proteins to the Golgi apparatus with the proximity inducing system described herein. FIG. 6A is a representation of the experimental design wherein HeLa cells co-expressing mCherry-^FIREtag and ^FIREmate-ECFP-Giantin were treated with 10 µM of match (either HBR-2,5DM or HMBR), and imaged by time-lapse confocal microscopy. FIGS. 6B-C are graphs showing the temporal evolution of the FIRE signal detected upon addition at 0 min of HBR-2,5DM (match1-6B) or HMBR (match2-6C). Data represents the mean values±SD of 10 cells from n=3 independent experiments (6B, D), or of 12 cells from n=3 independent experiments (6C, E). FIGS. 6D-E are sets of representative confocal micrographs of cells before (0 min) and after (5 min) addition of HBR-2,5DM (match1-6D) or HMBR (match2-6E) (mCherry: ex/em 561/606-675 nm; FIRE: ex/em 488/508-570 nm; ECFP: ex/em 445/455-499 nm). […] Scale bars are 20 μm.
The confocal micrographs were acquired on a Zeiss LSM 980 Laser Scanning Microscope equipped with a plan apochromat 63x/1.4 NA oil immersion objective. ZEN software was used to collect the data. The images were analyzed using Icy (2.4.0.0) and Fiji (Image J). In short, to track fluorescence signal in a specific organelle, a ROI (region of interest) was determined by masking the signal in the ECFP (Enhanced Cyan Fluorescent Protein) channel with the plug-in HK-means with the following parameters: intensity class equals 100, minimum object size (pixels or px) equals 500, maximum object size (px) equals 1500-3000. The signal intensity of the ROI was tracked over time for each channel by using plug-in Active Contours. The background signal was subtracted. Data were processed using GraphPad Prism v9.3.0.
To further evaluate the scope of the proximity inducing system described herein and show its versatility, ^FIREmate was anchored at the membrane of various organelles or cellular structures so that ^FIREmate faced the cytosol. ^FIREmate was thus fused: • to the N-terminus of the transmembrane domain (amino acid residues at positions 3131-3259) of Giantin for location at the cis-medial rims of the Golgi apparatus (FIG. 6A), • to the N-terminus of the transmembrane domain (amino acid residues at positions 100-134) of the cytochrome b5 (Cb5) for location at the endoplasmic reticulum membrane (FIG. 7A), and • to the C-terminus of the Lyn11 inner membrane targeting sequence for location at the plasma membrane (FIG. 8A).
For each construct, an ECFP was inserted between ^FIREmate and the other protein domain/sequence to monitor the localization of the resulting fusion protein (blue fluorescence). Each fusion protein was co-expressed in mammalian cells (HeLa cells or HEK293 cells as indicated) together with mCherry-^FIREtag (red fluorescence). […]

Assay [2] addresses T2, mCherry-caged^FIREtag / ^FIREmate-ECFP-Giantin (Halorhodospira halophila, UniProt P16113, A30V/C69G/D97P/F96I, form not given/G21E/G25R/K17N/M100R/M109L/Q41L/Q99S/S72T/T101G/V83A/Y94W/Y98T).
T2 construct: mCherry-caged FIREtag (PYP 2-114 C69G cage) and FIREmate-ECFP-Giantin in HeLa cells
T2 sequence (P16113 1-114 A30V/C69G/D97P/F96I/G21E/G25R/K17N/M100R/M109L/Q41L/Q99S/S72T/T101G/V83A/Y94W/Y98T): T1 sequence (P16113 1-114 A30V/C69G/D97P/F96I/G21E/G25R/K17N/M100R/M109L/Q41L/Q99S/S72T/T101G/V83A/Y94W/Y98T)
Put plainly: Recruitment of mCherry-caged^FIREtag to the Golgi, confocal microscopy, HeLa cells. The settings on record: 10 μM. The format is cell-based. The procedure:
FIGS. 11A-C illustrate the use of a caged proximity inducing system as described herein. FIG. 11A is a representation of the experimental design wherein HeLa cells co-expressing mCherry-caged^FIREtag and ^FIREmate-ECFP-Giantin were treated with 10 μM of match (i.e., HBR-2,5DM), and imaged by time-lapse confocal microscopy. FIG. 11B is a graph showing the temporal evolution of the FIRE signal detected upon addition of HBR-2,5DM at 0 min, either with ^FIREtag or with caged^FIREtag. Data represents the mean values±SD of 7 cells from n=3 independent experiments. FIG. 11C is a set of representative confocal micrographs of cells before (0 min) and after (9 min) addition of HBR-2,5DM (match1) (mCherry: ex/em 561/606-675 nm; FIRE: ex/em 488/508-570 nm; ECFP: ex/em 445/455-499 nm). […] Scale bars are 20 μm.
The confocal micrographs were acquired on a Zeiss LSM 980 Laser Scanning Microscope equipped with a plan apochromat 63x/1.4 NA oil immersion objective. […] The images were analyzed using Icy (2.4.0.0) and Fiji (Image J). In short, to track fluorescence signal in a specific organelle, a ROI (region of interest) was determined by masking the signal in the ECFP (Enhanced Cyan Fluorescent Protein) channel with the plug-in HK-means with the following parameters: intensity class equals 100, minimum object size (pixels or px) equals 500, maximum object size (px) equals 1500-3000. […]

Turning to `Cc1cc(/C=C2\SC(=S)NC2=O)c(C)cc1O` [HBR-2,5DM, (Z)-5-(4-hydroxy-2,5-dimethylbenzylidene)-2-thioxo-1,3-thiazolidin-4-one], in assay [1], the “FIRE signal at the Golgi apparatus” value is reported as “simultaneous appearance of green fluorescence” and the “translocation of mCherry-^FIREtag to the Golgi apparatus” value is “rapid translocation of mCherry-^FIREtag to the organelle”. In assay [2], the “kinetics of ternary assembly formation with caged^FIREtag, compared to ^FIREtag” value is recorded as “slower kinetics”. The “recruitment of mCherry-caged^FIREtag to the Golgi” value in assay [2] (9 min) is recorded as “efficient recruitment of mCherry-caged^FIREtag to the Golgi”.

The values are drawn from US20260309717A1, “PROXIMITY INDUCING SYSTEM AND USES THEREOF” (SORBONNE UNIVERSITE, priority 2022, published 2026).
